Measured values taken from ChEMBL document CHEMBL4385602, “Stereoselective synthesis and biological evaluation as inhibitors of hepatitis C virus RNA polymerase of GSK3082 analogues with structural diversity at the 5-position” (Eur J Med Chem, 2019).

Assays:
[1] = Cytotoxicity against human Huh5-2 cells assessed as reduction in cell viability measured after 3 days by CellTiter 96 AQueous One Solution Cell Proliferation assay; assay type: cell-based, Huh-5-2
[2] = biological target: RNA-directed RNA polymerase (Hepacivirus hominis) (UniProt O39930); assay: Inhibition of NS5B RNA dependent RNA polymerase in HCV 1b Con1 infected in human Huh5-2 cells assessed as reduction in viral RNA replication measured after 3 days by luciferase reporter gene assay; assay type: cell-based; conditions: Hepatitis C virus subtype 1b
Sequence of RNA-directed RNA polymerase (Hepacivirus hominis) (O39930 1-591): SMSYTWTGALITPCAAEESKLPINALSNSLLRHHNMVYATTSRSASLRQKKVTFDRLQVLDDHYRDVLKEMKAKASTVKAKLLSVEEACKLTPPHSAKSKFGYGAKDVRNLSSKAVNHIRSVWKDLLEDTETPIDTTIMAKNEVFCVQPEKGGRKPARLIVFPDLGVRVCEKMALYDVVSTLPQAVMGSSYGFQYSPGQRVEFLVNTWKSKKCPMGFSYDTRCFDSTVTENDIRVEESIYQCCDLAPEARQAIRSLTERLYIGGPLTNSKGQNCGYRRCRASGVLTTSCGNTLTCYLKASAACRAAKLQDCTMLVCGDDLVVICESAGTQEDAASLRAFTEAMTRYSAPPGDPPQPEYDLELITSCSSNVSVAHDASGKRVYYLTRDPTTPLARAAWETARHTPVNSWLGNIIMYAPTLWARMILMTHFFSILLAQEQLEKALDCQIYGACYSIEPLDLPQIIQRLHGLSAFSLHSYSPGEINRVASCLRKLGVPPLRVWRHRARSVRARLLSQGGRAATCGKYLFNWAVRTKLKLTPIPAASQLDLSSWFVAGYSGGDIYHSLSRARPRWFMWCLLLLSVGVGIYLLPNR

| inhibition [2] | Compound | CC50 at 72 h [1] |
| --- | --- | --- |
| Dose-dependent effect | COC[C@H]1C[C@@](CC(C)C)(C(=O)O)N(C(=O)c2ccc(C(C)(C)C)c(OC)c2)[C@H]1CF | > 120 µM |
| Dose-dependent effect | COC[C@H]1C[C@@](CC(C)C)(C(=O)O)N(C(=O)c2ccc(C(C)(C)C)c(OC)c2)[C@H]1[C@H]1COC(=O)O1 | > 120 µM |
| Dose-dependent effect | CC[C@H]1[C@@H](COC)C[C@@](CC(C)C)(C(=O)O)N1C(=O)c1ccc(C(C)(C)C)c(OC)c1 | 200 µM |
| Dose-dependent effect | COC[C@H]1C[C@@](CC(C)C)(C(=O)O)N(C(=O)c2ccc(C(C)(C)C)c(OC)c2)[C@H]1C(N)=O | > 120 µM |
| Dose-dependent effect | COC[C@H]1C[C@@](CC(C)C)(C(=O)O)N(C(=O)c2ccc(C(C)(C)C)c(OC)c2)[C@H]1COC(=O)OC | > 120 µM |
| Dose-dependent effect | COC[C@H]1C[C@@](CC(C)C)(C(=O)O)N(C(=O)c2ccc(C(C)(C)C)c(OC)c2)[C@H]1CN=[N+]=[N-] | > 120 µM |
| Dose-dependent effect | COC[C@H]1C[C@@](CC(C)C)(C(=O)O)N(C(=O)c2ccc(C(C)(C)C)c(OC)c2)[C@H]1COC | > 120 µM |
| Dose-dependent effect | C=CCOC[C@H]1[C@@H](COC)C[C@@](CC(C)C)(C(=O)O)N1C(=O)c1ccc(C(C)(C)C)c(OC)c1 | > 120 µM |
| Dose-dependent effect | CCOC(=O)c1csc([C@H]2[C@@H](COC)C[C@@](CC(C)C)(C(=O)O)N2C(=O)c2ccc(C(C)(C)C)c(OC)c2)n1 | 200 µM |
| Dose-dependent effect | COC[C@H]1C[C@@](CC(C)C)(C(=O)O)N(C(=O)c2ccc(C(C)(C)C)c(OC)c2)[C@H]1C(=O)OC | > 120 µM |
| Dose-dependent effect | COC[C@H]1C[C@@](CC(C)C)(C(=O)O)N(C(=O)c2ccc(C(C)(C)C)c(OC)c2)[C@H]1CNC(C)=O | > 120 µM |
| Dose-dependent effect | COC[C@H]1C[C@@](CC(C)C)(C(=O)O)N(C(=O)c2ccc(C(C)(C)C)c(OC)c2)[C@H]1c1nccs1 | > 120 µM |
| Dose-dependent effect | COC[C@H]1C[C@@](CC(C)C)(C(=O)O)N(C(=O)c2ccc(C(C)(C)C)c(OC)c2)[C@H]1[C@H]1COC(C)(C)O1 | > 120 µM |
| Dose-dependent effect | COC[C@H]1C[C@@](CC(C)C)(C(=O)O)N(C(=O)c2ccc(C(C)(C)C)c(OC)c2)[C@H]1COC(C)=O | > 120 µM |
| Dose-dependent effect | COC[C@H]1C[C@@](CC(C)C)(C(=O)O)N(C(=O)c2ccc(C(C)(C)C)c(OC)c2)[C@@H]1c1nccs1 | 200 µM |
